Data taken from ChEMBL document CHEMBL6092138, “Discovery of the potent covalent inhibitor with an acrylate warhead for SARS-CoV-2 3CL protease” (Bioorg Med Chem Lett, 2024).

Tests used:
[1] = molecular target: Replicase polyprotein 1ab (Severe acute respiratory syndrome coronavirus 2, UniProt P0DTD1); test: Inhibition of 6-his taggedSARS-Cov-2 3-CL protease using Dabcyl-KNSTLQSGLRKE-Edans as substrate preincubated for 60 mins followed by substrate addition by fluorescence based analysis
[2] = molecular target: Replicase polyprotein 1ab (Severe acute respiratory syndrome coronavirus 2) (UniProt P0DTD1); test: Binding affinity to 6-his taggedSARS-Cov-2 3-CL protease assessed as Kinact/Ki using Dabcyl-KNSTLQSGLRKE-Edans as substrate measured for 120 mins
Huh-7 = test: Cytotoxicity against human Huh-7 cells assessed as reduction in cell viability measured after 7 days by celltiter-glo assay; type: functional; settings: Huh-7, 168 h, time 7 day
Human coronavirus OC43 = test: Antiviral activity against HCoV OC43 infected in human Huh-7 cells assessed as inhibition of viral replication of CPE assay; type: functional, organism-based; settings: Betacoronavirus 1, Huh-7

Row | SMILES | IC50 [1] [nM] | K [2] [M⁻¹ s⁻¹] | CC50 (Huh-7) [nM] | EC50 (Human coronavirus OC43) [nM]
1 | CC(C)C(=O)N[C@H](C(=O)N1C[C@H]2[C@@H]([C@H]1C(=O)N[C@H](C#N)C[C@@H]1CCNC1=O)C2(C)C)c1cc(Cl)c(OCCN(C)C)c(Cl)c1 | 206 | – | – | –
2 | CC(C)(C)[C@H](NC(=O)C(F)(F)F)C(=O)N1C[C@H]2[C@@H]([C@H]1C(=O)N[C@H](/C=C/C(N)=O)C[C@@H]1CCNC1=O)C2(C)C | 23.4 | 9750 | > 10000 | 9070
3 | CN(C)CCOc1c(Cl)cc([C@H](NC(=O)C(F)(F)F)C(=O)N2C[C@H]3[C@@H]([C@H]2C(=O)N[C@H](C#N)C[C@@H]2CCNC2=O)C3(C)C)cc1Cl | 631 | – | – | –
4 | CC(C)(C)[C@H](NC(=O)C(F)(F)F)C(=O)N1C[C@H]2[C@@H]([C@H]1C(=O)N[C@H](C#N)C[C@@H]1CCNC1=O)C2(C)C [NIRMATRELVIR] | – | – | > 10000 | 72
5 | CN(C)CCOc1c(Cl)cc([C@H](NC(=O)C(F)F)C(=O)N2C[C@H]3[C@@H]([C@H]2C(=O)N[C@H](C#N)C[C@@H]2CCNC2=O)C3(C)C)cc1Cl | 376 | – | – | –
6 | CC(=O)/C(C)=C\[C@H](C[C@@H]1CCNC1=O)NC(=O)[C@@H]1[C@@H]2[C@H](CN1C(=O)[C@@H](NC(=O)C(F)(F)F)C(C)(C)C)C2(C)C | 50.7 | – | – | –
7 | CN(C)CCOc1c(Cl)cc(C(NC(=O)C(C)(C)F)C(=O)N2C[C@H]3[C@@H]([C@H]2C(=O)N[C@H](C#N)C[C@@H]2CCNC2=O)C3(C)C)cc1Cl (stereo not given in full) | 249 | – | – | –
8 | COC(=O)/C=C/[C@H](C[C@@H]1CCNC1=O)NC(=O)[C@@H]1[C@@H]2[C@H](CN1C(=O)[C@@H](NC(=O)C(F)(F)F)C(C)(C)C)C2(C)C | 28.9 | 17200 | > 10000 | 97
